Key:
Assay type in all cases: biochemical
[1] = molecular target: T1, PI3Kbeta (Homo sapiens, UniProt P42338); experiment: Human PI3K beta enzyme assay (HTRF, as for PI3K alpha); settings: for PI3Kbeta % inh / inhibition at 1.11 µM: at 1.11 μM; for inhibition at 1.11 µM: read-out: PI3Kbeta % inh; for IC50: read-out: IC50 (inhibit PI3Kbeta)
T1 construct: His (N); host or cells: SF9 insect cells (baculovirus)
Excerpt: (§1) The catalytic subunits of PI3Ks are cloned into either pDEST8(p110 alpha) or pDEST10(p110beta, p110delta, and p110gamma) as N-terminal His tagged fusion proteins using the Gateway system (Invitrogen, catalog#11804-010 for pDEST8 and 11806-015 for pDEST10). The sequences are verified before recombinant protein expression using the Baculovirus Expression System with Gateway® Technology. The accession numbers for the subunits are as follows:
(§2) The regulatory subunits of PI3Ks are cloned into pDEST8 as un-tagged protein using the Gateway system (Catalog#11804-010). The sequences are verified before recombinant protein expression using the Baculovirus Expression System with Gateway® Technology. The accession numbers for the subunits are as follows:
(§3) For expression of the p110 complexes, the p85 (MOI of 4) is co-infected with p110 alpha, beta, and delta respectively (1MOI) in SF9 cells and harvested at 60 hours post co-infection. P110 gamma was infected at 1 MOI and harvested at 60 hours post infection.
(§4) For purification, PI3Ks are purified by Ni-NTA Agarose (Qiagen #30250) followed by Mono Q 10/100 GL (Ge Healthcare #17-5167-01). VPS34 is purified by Glutathione Sepharose 4 Fast Flow (GE Healthcare #17-5132-03) followed by HiTrap Q (GE Healthcare #17-1153-01).
(§5) 0.5 uL compounds in DMSO are added to wells of a 384 well microtitre plate (Corning 3575). At room temperature: 10 ul PI3K reaction buffer (50 mM Hepes, 5 mM DTT, 150 mM NaCl, 10 mM beta-glycerophosphate, 10 mM MgCl2, 0.25 mM sodium cholate and 0.001% CHAPS, pH 7.00) containing ATP (25 uM, Promega) is added followed immediately by 10 ul PI3K reaction buffer containing di-C8 PI(4,5)P2 (3.5 uM, CellSignals) and PI3Kalpha (0.4875 nM, Millennium Protein Sciences Group) and the mixture is incubated with shaking at room temperature for 30 minutes. Then 5 ul PI3K stop mix (50 mM Hepes, 5 mM DTT, 150 mM NaCl, 0.01% Tween-20, 15 mM EDTA and 25 nM biotin-PI(3,4,5)P3 (Echelon) is added to quench the reaction followed immediately by addition of 5 ul HTRF detection mix (50 mM Hepes, 5 mM DTT, 150 mM NaCl, 0.01% Tween-20, 40 mM KF, 10 nM GST:GRP-1 PH domain (Millennium Protein Sciences Group), 15 nM Streptavidin-XL (CisBio) and 0.375 nM anti-GST Eu++ antibody (CisBio) at pH 7.00). The plates are then incubated for 1 hour at room temperature with shaking and then read on a BMG PheraStar Plus reader.
(§6) 2) Human PI3K beta, delta and gamma isoforms are tested using the procedure described for PI3K alpha above but with the following changes: PI3K beta (5.25 nM), PI3K delta (0.75 nM) and PI3K gamma (5 nM). All isoforms supplied by Millennium Protein Science Group.

[2] = molecular target: T2, PI3Kgamma (Homo sapiens, UniProt P48736); experiment: Human PI3K gamma enzyme assay (HTRF, as for PI3K alpha); settings: read-out: PI3Kgamma % inh
T2 construct: His (N); host or cells: SF9 insect cells (baculovirus)
Excerpt: as §1, §2, §3, §4, §5, §6

[3] = molecular target: T3, PI3Kdelta (Homo sapiens, UniProt O00329); experiment: Human PI3K delta enzyme assay (HTRF, as for PI3K alpha); settings: read-out: PI3Kdelta % inh
T3 construct: His (N); host or cells: SF9 insect cells (baculovirus)
Excerpt: as §1, §2, §3, §4, §5, §6

[4] = molecular target: T4, PI3Kalpha (Homo sapiens, UniProt P42336); experiment: Human PI3Kα enzyme assay (HTRF); settings: for PI3Kalpha % inh: at 1.11 μM; for inhibition at 1.11 µM: read-out: PI3Kalpha % inh
T4 construct: His (N); host or cells: SF9 insect cells (baculovirus)
Excerpt: as §1, §2, §3, §4
1) Human PI3Kα enzyme assay method
as §5

T3 sequence (O00329 whole entry): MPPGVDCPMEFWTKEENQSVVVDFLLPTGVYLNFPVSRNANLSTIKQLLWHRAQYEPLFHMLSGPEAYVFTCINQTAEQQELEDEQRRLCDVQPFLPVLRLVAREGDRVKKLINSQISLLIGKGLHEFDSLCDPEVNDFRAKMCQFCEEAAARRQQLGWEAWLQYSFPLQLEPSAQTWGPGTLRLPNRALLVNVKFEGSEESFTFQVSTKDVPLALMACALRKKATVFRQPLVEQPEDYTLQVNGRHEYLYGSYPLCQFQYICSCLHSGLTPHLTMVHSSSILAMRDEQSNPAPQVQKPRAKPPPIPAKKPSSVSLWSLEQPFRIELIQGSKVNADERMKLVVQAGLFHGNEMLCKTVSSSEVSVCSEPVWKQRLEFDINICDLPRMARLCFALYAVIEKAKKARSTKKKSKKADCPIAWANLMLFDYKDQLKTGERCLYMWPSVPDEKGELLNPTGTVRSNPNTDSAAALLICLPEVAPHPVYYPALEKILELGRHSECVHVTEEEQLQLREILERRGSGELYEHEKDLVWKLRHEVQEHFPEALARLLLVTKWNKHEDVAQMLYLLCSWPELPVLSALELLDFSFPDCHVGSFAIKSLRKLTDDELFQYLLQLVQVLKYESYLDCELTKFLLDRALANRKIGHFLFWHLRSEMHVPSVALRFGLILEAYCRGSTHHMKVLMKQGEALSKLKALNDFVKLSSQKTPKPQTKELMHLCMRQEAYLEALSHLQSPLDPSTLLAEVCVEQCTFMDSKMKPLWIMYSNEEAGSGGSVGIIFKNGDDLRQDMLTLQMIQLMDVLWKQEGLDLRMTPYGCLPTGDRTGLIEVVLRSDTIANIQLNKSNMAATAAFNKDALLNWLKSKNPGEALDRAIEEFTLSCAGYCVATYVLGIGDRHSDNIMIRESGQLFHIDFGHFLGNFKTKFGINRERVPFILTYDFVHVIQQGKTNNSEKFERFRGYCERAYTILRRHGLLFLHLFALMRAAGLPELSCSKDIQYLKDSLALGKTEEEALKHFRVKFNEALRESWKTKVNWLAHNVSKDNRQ
T3 sequence (P27986 whole entry partner): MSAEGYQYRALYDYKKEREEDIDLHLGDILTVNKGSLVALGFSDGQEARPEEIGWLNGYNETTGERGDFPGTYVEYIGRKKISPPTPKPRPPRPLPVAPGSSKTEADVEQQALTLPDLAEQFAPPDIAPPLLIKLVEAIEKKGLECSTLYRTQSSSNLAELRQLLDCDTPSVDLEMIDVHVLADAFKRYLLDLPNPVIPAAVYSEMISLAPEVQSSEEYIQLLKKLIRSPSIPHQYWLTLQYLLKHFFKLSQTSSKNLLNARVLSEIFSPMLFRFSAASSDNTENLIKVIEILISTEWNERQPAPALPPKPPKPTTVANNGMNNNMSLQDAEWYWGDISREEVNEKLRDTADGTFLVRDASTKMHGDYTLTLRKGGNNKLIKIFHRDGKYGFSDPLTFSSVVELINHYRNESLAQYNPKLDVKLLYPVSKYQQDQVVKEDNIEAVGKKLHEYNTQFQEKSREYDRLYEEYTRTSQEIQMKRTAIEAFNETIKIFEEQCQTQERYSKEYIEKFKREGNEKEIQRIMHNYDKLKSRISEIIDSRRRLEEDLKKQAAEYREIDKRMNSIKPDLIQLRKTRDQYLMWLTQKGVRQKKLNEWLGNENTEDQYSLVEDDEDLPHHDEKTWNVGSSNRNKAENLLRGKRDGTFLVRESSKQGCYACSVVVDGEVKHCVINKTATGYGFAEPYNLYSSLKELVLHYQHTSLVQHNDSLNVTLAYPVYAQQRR
T4 sequence (P42336 whole entry): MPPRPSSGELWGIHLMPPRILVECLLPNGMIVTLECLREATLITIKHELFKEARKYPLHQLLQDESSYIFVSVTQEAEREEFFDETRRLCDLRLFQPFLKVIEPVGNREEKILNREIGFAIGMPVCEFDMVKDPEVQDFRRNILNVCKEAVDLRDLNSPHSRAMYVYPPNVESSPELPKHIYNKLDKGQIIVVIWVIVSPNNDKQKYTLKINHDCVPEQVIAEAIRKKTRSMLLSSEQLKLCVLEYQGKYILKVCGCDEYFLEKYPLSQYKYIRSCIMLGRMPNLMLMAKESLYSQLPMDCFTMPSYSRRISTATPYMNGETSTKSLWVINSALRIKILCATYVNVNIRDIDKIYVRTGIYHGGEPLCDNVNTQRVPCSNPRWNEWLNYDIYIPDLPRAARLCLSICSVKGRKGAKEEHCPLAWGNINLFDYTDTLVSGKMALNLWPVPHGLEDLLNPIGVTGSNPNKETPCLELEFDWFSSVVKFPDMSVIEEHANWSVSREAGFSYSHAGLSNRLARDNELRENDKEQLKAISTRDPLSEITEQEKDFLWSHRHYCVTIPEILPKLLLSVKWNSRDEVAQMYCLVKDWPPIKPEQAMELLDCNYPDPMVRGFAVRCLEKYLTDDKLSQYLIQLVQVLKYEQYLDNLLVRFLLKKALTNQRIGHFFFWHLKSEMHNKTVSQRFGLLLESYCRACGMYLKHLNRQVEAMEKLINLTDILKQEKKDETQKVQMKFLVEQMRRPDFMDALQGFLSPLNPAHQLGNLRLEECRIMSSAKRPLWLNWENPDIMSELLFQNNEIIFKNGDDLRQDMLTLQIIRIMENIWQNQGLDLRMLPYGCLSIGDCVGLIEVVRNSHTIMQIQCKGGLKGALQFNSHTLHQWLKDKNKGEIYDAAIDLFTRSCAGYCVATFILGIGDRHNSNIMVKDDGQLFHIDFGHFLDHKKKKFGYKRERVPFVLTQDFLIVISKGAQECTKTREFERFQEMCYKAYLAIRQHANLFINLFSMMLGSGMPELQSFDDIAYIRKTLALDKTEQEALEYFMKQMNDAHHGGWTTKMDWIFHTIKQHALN
T4 sequence (P27986 whole entry partner): as the sequence (P27986 whole entry partner) above
T2 sequence (P48736 whole entry): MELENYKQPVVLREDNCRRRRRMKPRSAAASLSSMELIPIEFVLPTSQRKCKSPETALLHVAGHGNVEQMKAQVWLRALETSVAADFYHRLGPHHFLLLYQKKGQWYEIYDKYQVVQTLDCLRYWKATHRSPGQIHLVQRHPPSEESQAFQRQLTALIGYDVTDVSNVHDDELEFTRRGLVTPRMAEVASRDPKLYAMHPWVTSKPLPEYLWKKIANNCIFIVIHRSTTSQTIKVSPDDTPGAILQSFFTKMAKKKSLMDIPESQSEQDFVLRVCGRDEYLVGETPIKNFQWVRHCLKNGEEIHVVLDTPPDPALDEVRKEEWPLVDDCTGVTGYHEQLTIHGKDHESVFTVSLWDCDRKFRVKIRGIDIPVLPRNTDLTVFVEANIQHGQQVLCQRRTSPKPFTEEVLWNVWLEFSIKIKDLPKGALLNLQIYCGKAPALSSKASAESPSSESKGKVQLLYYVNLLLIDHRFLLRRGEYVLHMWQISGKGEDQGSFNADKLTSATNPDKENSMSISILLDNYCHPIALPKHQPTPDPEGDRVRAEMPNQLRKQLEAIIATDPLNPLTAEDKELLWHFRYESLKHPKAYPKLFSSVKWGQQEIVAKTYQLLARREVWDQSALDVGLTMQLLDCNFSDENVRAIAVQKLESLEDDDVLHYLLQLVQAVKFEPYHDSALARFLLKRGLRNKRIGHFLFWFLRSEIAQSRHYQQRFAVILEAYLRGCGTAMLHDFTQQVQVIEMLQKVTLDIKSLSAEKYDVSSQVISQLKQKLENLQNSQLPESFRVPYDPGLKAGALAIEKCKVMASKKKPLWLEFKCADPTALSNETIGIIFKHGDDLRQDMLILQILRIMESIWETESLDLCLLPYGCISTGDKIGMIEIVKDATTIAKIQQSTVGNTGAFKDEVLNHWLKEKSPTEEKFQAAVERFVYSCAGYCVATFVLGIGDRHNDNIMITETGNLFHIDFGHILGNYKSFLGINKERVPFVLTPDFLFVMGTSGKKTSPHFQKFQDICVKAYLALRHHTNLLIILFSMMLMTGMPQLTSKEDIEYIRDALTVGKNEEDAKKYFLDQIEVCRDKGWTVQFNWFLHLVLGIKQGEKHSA
T1 sequence (P42338 whole entry): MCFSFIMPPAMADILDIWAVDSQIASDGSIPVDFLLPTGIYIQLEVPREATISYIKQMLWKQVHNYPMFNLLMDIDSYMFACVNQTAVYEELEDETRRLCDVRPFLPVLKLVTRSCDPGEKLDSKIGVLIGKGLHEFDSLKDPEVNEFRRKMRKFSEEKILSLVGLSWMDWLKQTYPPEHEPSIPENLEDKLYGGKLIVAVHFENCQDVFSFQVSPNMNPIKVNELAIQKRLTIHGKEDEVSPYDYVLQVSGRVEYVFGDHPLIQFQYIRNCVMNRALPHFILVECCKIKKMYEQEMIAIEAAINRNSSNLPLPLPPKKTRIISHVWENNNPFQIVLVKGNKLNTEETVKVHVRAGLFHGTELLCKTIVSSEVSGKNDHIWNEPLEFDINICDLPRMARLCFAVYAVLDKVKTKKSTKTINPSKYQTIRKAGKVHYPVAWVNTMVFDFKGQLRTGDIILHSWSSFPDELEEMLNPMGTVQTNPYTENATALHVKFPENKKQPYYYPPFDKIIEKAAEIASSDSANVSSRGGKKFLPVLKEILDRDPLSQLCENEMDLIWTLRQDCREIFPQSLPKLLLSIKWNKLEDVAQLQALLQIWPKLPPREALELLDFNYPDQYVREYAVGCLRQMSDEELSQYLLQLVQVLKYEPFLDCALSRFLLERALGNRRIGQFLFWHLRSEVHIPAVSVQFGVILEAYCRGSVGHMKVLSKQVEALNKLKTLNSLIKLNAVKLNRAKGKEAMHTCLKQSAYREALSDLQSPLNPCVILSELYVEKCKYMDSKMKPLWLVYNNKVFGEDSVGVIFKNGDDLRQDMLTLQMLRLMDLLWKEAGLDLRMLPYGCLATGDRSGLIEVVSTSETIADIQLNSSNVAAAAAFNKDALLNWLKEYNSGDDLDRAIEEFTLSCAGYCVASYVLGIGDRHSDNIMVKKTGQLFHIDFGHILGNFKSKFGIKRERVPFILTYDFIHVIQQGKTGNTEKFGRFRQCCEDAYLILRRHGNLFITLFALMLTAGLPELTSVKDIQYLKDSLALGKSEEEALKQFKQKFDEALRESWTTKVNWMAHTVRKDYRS
T1 sequence (P27986 whole entry partner): as the sequence (P27986 whole entry partner) above

PI3Kbeta % inh [1] | inhibition at 1.11 µM [2] | inhibition at 1.11 µM [3] | PI3Kalpha % inh [4] | inhibition at 1.11 µM [1] | inhibition at 1.11 µM [4] | IC50 [1] | Structure (SMILES)
83.73% | 12.5% | 51.6% | 22.53% | – | – | – | O=C1N[C@@H](C(=O)NCCCO)[C@H](c2ccc(Cl)cc2)c2cc(N3CCOCC3)sc21 [Compound 170]
118.63% | 13.2% | 98.2% | 24.59% | – | – | – | O=C1NCCC(c2ccc(Cl)cc2)c2cc(N3CCOCC3)sc21 (stereo not drawn) [Compound 148]
– | 3.59% | 41.8% | – | 70.6% | 7.94% | – | CC(C)NC(=O)[C@@H]1NC(=O)c2sc(N3CCOCC3)cc2[C@H]1c1ccc(Cl)cc1 [Compound 162]
– | 50.7% | 99.7% | – | 107% | 40.4% | – | NC(=O)[C@@H]1NC(=O)c2sc(N3CCOCC3)cc2[C@H]1c1ccc(Cl)c(Cl)c1 (relative stereo) [Compound 146, rel-(4R,5R)-4-(3,4-dichlorophenyl)-2-(morpholin-4-yl)-7-oxo-4,5,6,7-tetrahydrothieno[2,3-c]pyridine-5-carboxamide]
– | 30.7% | 102% | – | 110% | 35% | – | O=C1N[C@@H](CO)[C@H](c2ccc(Cl)cc2)c2cc(N3CCOCC3)sc21 [Compound 133]
– | 21.5% | 99.9% | – | 108% | 26.8% | – | N#Cc1c(N2CCOCC2)sc2c1C(c1ccc(Cl)cc1)CCNC2=O (stereo not drawn) [Compound 150]
– | 35.8% | 101% | – | 123% | 57.5% | – | Cc1cc(C2CNC(=O)c3sc(N4CCOCC4)c(C#N)c32)ccc1Cl (stereo not drawn) [Compound 190]
105.20% | 60.1% | 108% | 28.06% | – | – | – | O=C1NCC(c2ccc(Cl)c(Cl)c2)c2cc(N3CCOCC3)sc21 (stereo not drawn) [Compound 176, 4-(3,4-dichlorophenyl)-2-morpholino-5,6-dihydrothieno[2,3-c]pyridin-7(4H)-one]
– | 9.08% | 47.4% | 19.34% | 84.1% | – | – | CCNC(=O)[C@@H]1NC(=O)c2sc(N3CCOCC3)cc2[C@H]1c1ccc(Cl)cc1 [Compound 197]
– | 60.3% | 99.8% | – | 107% | 42.4% | – | O=C1CC(c2ccc3ccccc3c2)c2cc(N3CCOCC3)sc21 (stereo not drawn) [Compound 119]
– | 9.41% | 59.2% | – | 93.5% | 12.2% | – | O=C1NCC(c2ccc(Cl)cc2)c2nc(N3CCOCC3)sc21 (stereo not drawn) [Compound 124]
87.14% | 9.08% | 39.8% | 20.40% | – | – | – | O=C1N[C@@H](C(=O)NCCO)[C@H](c2ccc(Cl)cc2)c2cc(N3CCOCC3)sc21 [Compound 153]
– | – | – | – | 69.2% | 7.59% | – | C=CCN1C(=O)c2sc(N3CCOCC3)cc2C(c2ccc(Cl)c(Cl)c2)C1C(=O)OC (stereo not drawn) [Compound 166, methyl 6-allyl-4-(3,4-dichlorophenyl)-2-(morpholin-4-yl)-7-oxo-4,5,6,7-tetrahydrothieno[2,3-c]pyridine-5-carboxylate]
14.400% | – | – | −0.100% | – | – | > 1 µM | O=C1CCC(c2ccc(Cl)cc2)c2cc(-c3ccncc3)sc21 (single isomer, unassigned) [Compound 4, 4-(4-chlorophenyl)-2-pyridin-4-yl-5,6-dihydro-1-benzothiophen-7(4H)-one]
– | – | – | – | 54.5% | 24.5% | 0.1 to 1 µM | CC(=O)Nc1cc(-c2cc3c(s2)C(=O)CC3c2ccc(Cl)cc2)ccn1 (stereo not drawn) [Compound 16, N-(4-(4-(4-chlorophenyl)-6-oxo-5,6-dihydro-4H-cyclopenta[b]thiophen-2-yl)pyridin-2-yl)acetamide]
– | – | – | – | 81.2% | 5.27% | – | NC(=O)c1cc(C2CCNC(=O)c3sc(N4CCOCC4)nc32)ccc1Cl (stereo not drawn) [Compound 167]
60.14% | – | – | 51.34% | – | – | – | O=C1N[C@@H](C(=O)NCCO)[C@H](c2ccc(Cl)cc2)c2cc(N3CCOCC3)sc21 [Compound 204]
– | – | – | – | 95.6% | 14.4% | – | COC(=O)C1C(=O)c2sc(N3CCOCC3)cc2C1c1ccc(Cl)c(Cl)c1 (stereo not drawn) [Compound 139, methyl 4-(3,4-dichlorophenyl)-2-(morpholin-4-yl)-6-oxo-5,6-dihydro-4H-cyclopenta[b]thiophene-5-carboxylate]
– | – | – | – | 79.1% | 11.1% | – | O=Cc1c(N2CCOCC2)sc2c1C(c1ccc(Cl)cc1)CNC2=O (single isomer, unassigned) [Compound 193, 4-(4-chlorophenyl)-2-(morpholin-4-yl)-7-oxo-4,5,6,7-tetrahydrothieno[2,3-c]pyridine-3-carbaldehyde]
– | – | – | – | 82.5% | 4.56% | – | COC(=O)c1cc(C2CCNC(=O)c3sc(N4CCOCC4)nc32)ccc1Cl (stereo not drawn) [Compound 174, methyl 2-chloro-5-[2-(morpholin-4-yl)-4-oxo-5,6,7,8-tetrahydro-4H-[1,3]thiazolo[5,4-c]azepin-8-yl]benzoate]
62.94% | – | – | – | – | 42.9% | – | CNC(=O)[C@@H]1NC(=O)c2sc(C3=CCOCC3)cc2[C@H]1c1ccc(Cl)cc1 [Compound 207]
– | – | – | – | 49.3% | 16.1% | – | O=C1OC2(CCNC(=O)c3sc(N4CCOCC4)nc32)c2ccc(Cl)cc21 (stereo not drawn) [Compound 172, 5-chloro-2′-(morpholin-4-yl)-6′,7′-dihydro-3H-spiro[2-benzofuran-1,8′-[1,3]thiazolo[5,4-c]azepine]-3,4′(5′H)-dione]
– | – | – | – | 128% | 97.8% | – | O=C1NCC(c2ccc(Cl)cc2)c2c1sc(N1CCOCC1)c2C#Cc1cccnc1 (stereo not drawn) [Compound 122]
– | – | – | – | 32.8% | -3.8% | > 1 µM | CC1(C)CC(=O)c2sc(-c3ccncc3)cc2C1(O)c1ccc(Cl)cc1 (stereo not drawn) [Compound 5, 4-(4-chlorophenyl)-4-hydroxy-5,5-dimethyl-2-pyridin-4-yl-5,6-dihydro-1-benzothiophen-7(4H)-one]
– | – | – | – | 121% | 89.8% | – | N#Cc1c(N2CCOCC2)sc2c1C(c1ccc3ccccc3c1)CNC2=O (stereo not drawn) [Compound 135, 2-(morpholin-4-yl)-4-(2-naphthyl)-7-oxo-4,5,6,7-tetrahydrothieno[2,3-c]pyridine-3-carbonitrile]
– | – | – | – | 111% | 30.1% | – | CNC(=O)[C@H]1NC(=O)c2sc(N3CCOCC3)cc2[C@H]1c1ccc(Cl)cc1 [Compound 157]
– | – | – | – | 118% | 67.2% | – | N#Cc1c(N2CCOCC2)sc2c1C(c1ccc(Cl)c(Cl)c1)CNC2=O (stereo not drawn) [Compound 159]
65.59% | – | – | 54.25% | – | – | – | CNC(=O)[C@@H]1NC(=O)c2sc(N3CCOCC3)cc2[C@H]1c1ccc(Cl)cc1 [Compound 212]
96.83% | – | – | 28.04% | – | – | – | Cc1cc(C2CNC(=O)c3sc(N4CCOCC4)cc32)ccc1Cl (stereo not drawn) [Compound 205]
– | – | – | – | 64.6% | 7.29% | – | CNC(=O)[C@@H]1NC(=O)c2sc(-c3ccnc(C)c3)cc2[C@H]1c1ccc(Cl)cc1 (relative stereo) [Compound 138, rel-(4R,5R)-4-(4-chlorophenyl)-N-methyl-2-(2-methylpyridin-4-yl)-7-oxo-4,5,6,7-tetrahydrothieno[2,3-c]pyridine-5-carboxamide]

Source: patent US8765746B2 (Millennium Pharmaceuticals, Inc., priority 2010, dated 2014)
